Assays:
Format in all cases: biochemical
[1] = target: PKR R532W (Homo sapiens, UniProt P30613, R532W); assay: PKR R532W Single Point Percent Activation Assay; conditions: compound at 1 μM; read-out: % Act. R532W
Description: PKR R532W Single Point Percent Activation Assay
(§1) A compound described herein was diluted with DMSO and tested at 1 μM concentration. The enzyme was diluted in 1× Buffer: (100 mM KCl, 50 mM Tris 7.5, 5 mM MgCl2, 1 mM DTT, 0.03% BSA). 2 μL of compound solution was first added into wells, and then 180 μL of enzyme solution was added. Assays were assembled except for ADP, and plates were stored for 60 minutes at RT. 20 μL ADP was added to start the assay and assay output was evaluated using OD340 at SpectraMax. The assay was run at room temperature.
PKR R532W (100 ng/well), Tris pH 7.5 (50 mM), KCl (100 mM), MgCl2 (5 mM), ADP (0.36 mM), PEP (0.1 mM), NADH (180 μM), LDH (0.5 units, Sigma 59023), DTT (1 mM) and BSA (0.03%).

[2] = target: PKR wt (Homo sapiens, UniProt P30613); assay: PKR WT Single Point Percent Activation Assay; conditions: compound at 1 μM
Description: PKR WT Single Point Percent Activation Assay
as §1
PKR wt (100 ng/well), Tris pH 7.5 (50 mM), KCl (100 mM), MgCl2 (5 mM), ADP (0.48 mM), PEP (0.15 mM), NADH (180 μM), LDH (0.5 units, Sigma 59023), DTT (1 mM) and BSA (0.03%).

[3] = target: PKR T384W (Homo sapiens, UniProt P30613); assay: PKR T384W Single Point Percent Activation Assay; conditions: compound at 1 μM
Description: PKR T384W Single Point Percent Activation Assay
as §1, with “180 μL enzyme solution” for “180 μL of enzyme solution”
PKR T384W soluble (300 ng/well), Tris pH 7.5 (50 mM), KCl (100 mM), MgCl2 (5 mM), ADP (0.08 mM), PEP (0.23 mM), NADH (180 μM), LDH (0.5 units, Sigma 59023), DTT (1 mM) and BSA (0.03%).

[4] = target: PKR R510Q (Homo sapiens, UniProt P30613, R510Q); assay: PKR R510Q Single Point Percent Activation Assay; conditions: compound at 1 μM; read-out: % Act. R510Q
Description: PKR R510Q Single Point Percent Activation Assay
as §1
PKR R510Q (40 ng/well), Tris pH 7.5 (50 mM), KCl (100 mM), MgCl2 (5 mM), ADP (0.2 mM), PEP (0.11 mM), NADH (180 μM), LDH (0.5 units, Sigma 59023), DTT (1 mM) and BSA (0.03%).

Sequence of PKR wt (P30613 whole entry): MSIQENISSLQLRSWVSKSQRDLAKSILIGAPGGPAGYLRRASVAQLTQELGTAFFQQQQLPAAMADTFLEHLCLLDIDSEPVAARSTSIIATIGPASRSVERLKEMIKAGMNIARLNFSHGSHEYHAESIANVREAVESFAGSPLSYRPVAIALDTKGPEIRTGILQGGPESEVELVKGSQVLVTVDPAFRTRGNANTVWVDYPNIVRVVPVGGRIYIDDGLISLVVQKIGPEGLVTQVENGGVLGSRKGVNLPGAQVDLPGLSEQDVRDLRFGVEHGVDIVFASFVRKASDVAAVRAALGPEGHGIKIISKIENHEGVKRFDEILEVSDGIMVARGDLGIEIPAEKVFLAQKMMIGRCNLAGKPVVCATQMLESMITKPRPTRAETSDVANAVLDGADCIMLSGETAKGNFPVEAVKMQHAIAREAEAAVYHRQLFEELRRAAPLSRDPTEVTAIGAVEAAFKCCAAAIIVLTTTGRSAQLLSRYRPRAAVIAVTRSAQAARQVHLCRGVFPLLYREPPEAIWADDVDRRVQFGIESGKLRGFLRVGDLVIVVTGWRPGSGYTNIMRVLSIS
Sequence of PKR R510Q (P30613 whole entry R510Q): as the sequence (P30613 whole entry) above, with R510Q counted along it
Sequence of PKR R532W (P30613 whole entry R532W): as the sequence (P30613 whole entry) above, with R532W counted along it
Sequence of PKR T384W (P30613 whole entry T384M): as the sequence (P30613 whole entry) above, with T384M counted along it

Structure (SMILES)	activation at 1 µM [1]	activation at 1 µM [2]	activation at 1 µM [4]	% Act. T384W [3]
O=C(OC1CN(C(=O)c2ccc(NS(=O)(=O)c3cccc4cccnc34)cc2)C1)c1ccccn1	1 to 100%	101 to 500%	101 to 500%	B (a % activation at 1 μM of from 101 to 500)
O=C(c1ccc(NS(=O)(=O)c2cccc3cccnc23)cc1)N1CC(NCc2ccccc2)C1	101 to 500%	101 to 500%	101 to 500%	B (a % activation at 1 μM of from 101 to 500)
Cc1cc(C(=O)N2CC(Nc3ccncc3)C2)ccc1NS(=O)(=O)c1cccc2cccnc12	1 to 100%	101 to 500%	1 to 100%	A (a % activation at 1 μM of from 1 to 100)
Cc1cc(C(=O)N2CC(OC(=O)Nc3ccccn3)C2)ccc1NS(=O)(=O)c1cccc2cccnc12	101 to 500%	1 to 100%	101 to 500%	A (a % activation at 1 μM of from 1 to 100)
COc1cc(NS(=O)(=O)c2cccc3cccnc23)ccc1C(=O)N1CC(OC(=O)Nc2ccccn2)C1	101 to 500%	101 to 500%	101 to 500%	B (a % activation at 1 μM of from 101 to 500)
O=C(Nc1ccccn1)NC1CN(C(=O)c2ccc(NS(=O)(=O)c3cccc4cccnc34)cc2)C1	101 to 500%	101 to 500%	101 to 500%	B (a % activation at 1 μM of from 101 to 500)
CC(C)NC(=O)NC1CN(C(=O)c2ccc(NS(=O)(=O)c3cccc4cccnc34)cc2)C1	101 to 500%	101 to 500%	101 to 500%	B (a % activation at 1 μM of from 101 to 500)
Cc1cc(C(=O)N2CC(NC(=O)NC(C)C)C2)ccc1NS(=O)(=O)c1cccc2cccnc12	101 to 500%	101 to 500%	101 to 500%	B (a % activation at 1 μM of from 101 to 500)

Second part, led by results:

activation at 1 µM [1]	activation at 1 µM [2]	activation at 1 µM [4]	Structure (SMILES)	% Act. T384W [3]
101 to 500%	101 to 500%	101 to 500%	COc1ncccc1NC1CN(C(=O)c2ccc(NS(=O)(=O)c3cccc4cccnc34)c(C)c2)C1	B (a % activation at 1 μM of from 101 to 500)
101 to 500%	101 to 500%	101 to 500%	COc1cccnc1NC1CN(C(=O)c2ccc(NS(=O)(=O)c3cccc4cccnc34)c(C)c2)C1	B (a % activation at 1 μM of from 101 to 500)
101 to 500%	101 to 500%	1 to 100%	COc1ccccc1OC1CN(C(=O)c2ccc(NS(=O)(=O)c3cccc4cccnc34)cc2OC)C1	B (a % activation at 1 μM of from 101 to 500)
1 to 100%	101 to 500%	1 to 100%	COc1ccncc1NC1CN(C(=O)c2ccc(NS(=O)(=O)c3cccc4cccnc34)c(C)c2)C1	B (a % activation at 1 μM of from 101 to 500)
101 to 500%	101 to 500%	1 to 100%	COc1ccccc1OC1CN(C(=O)c2ccc(NS(=O)(=O)c3cccc4cccnc34)c(F)c2)C1	B (a % activation at 1 μM of from 101 to 500)
1 to 100%	1 to 100%	101 to 500%	COc1cc(C(=O)N2CC(OC(=O)Nc3ccccn3)C2)ccc1NS(=O)(=O)c1cccc2cccnc12	A (a % activation at 1 μM of from 1 to 100)
101 to 500%	101 to 500%	101 to 500%	COc1cc(C(=O)N2CC(Oc3ccccc3OC)C2)ccc1NS(=O)(=O)c1cccc2cccnc12	B (a % activation at 1 μM of from 101 to 500)
101 to 500%	101 to 500%	101 to 500%	O=C(Nc1ccccn1)OC1CN(C(=O)c2ccc(NS(=O)(=O)c3cccc4cccnc34)c(F)c2)C1	B (a % activation at 1 μM of from 101 to 500)
